The values below come from patent US9980951B2, “Image guided therapy for cancer” (UNIVERSITY OF IOWA RESEARCH FOUNDATION, priority 2015, dated 2018).

Assay [1] concerns A375 melanoma cells. Put plainly: Intracellular ATP measurement (CellTiter-Glo luciferase assay). The assay is classed as cell-based, human. The settings on record: 24 h; for concentration of ATP relative to the untreated control: A375, 2.5, 5.0, or 10 μM. As for the experimental part:
(§1) TPVP derivatives embed in the mitochondria of malignant cells and increase the oxidation state relative to NHFs. Therefore, intracellular ATP levels were measured to determine the potential impact of TPVP-based treatment on cell viability (FIG. 4). This platereader-based luciferase assay is a selective method for determining the number of viable cells by quantifying the ATP-dependent oxygenation of luciferin. […] Specifically, A375 ATP levels were depleted from 1.5 mM to less than 0.8 mM after exposure to all three compounds at 10 μM.
(§2) Experiments were performed using human metastatic BRAFV600E mutant A375 (ATCC CRL-1619) human melanoma cells, metastatic BRAFV600E mutant SK-Mel-3 (ATCC HTB-69) human melanoma cells isolated from a lymph node metastasis, and nonmetastatic normal human fibroblasts (NHFs) provided by the Coriell Institute (AG13442). All cells were cultured at 21% O2 at 37° C. in a humidified 5% CO2 incubator. Cells were detached with 0.25% trypsin-EDTA. A375 and NHF cells were cultured in high-glucose DMEM medium supplemented with 1% PenStrep and 10% FBS. SK-Mel-3 cells were cultured in high-glucose McCoy's 5A medium supplemented with 1% PenStrep and 15% FBS. All medium components were purchased from Gibco.
(§3) A375 cells were plated in 60 mm culture dishes at a density of 1.5×10^5 cells per dish. SK-Mel-3 and NHF cells were plated in 60 mm culture dishes at a density of 2.5×10^5 cells per dish. After 48 h, cells were exposed to 2.5, 5.0 or 10 μM of PTVP, DPDVP, or 18:2-TPVP for 24 h and analyzed for intracellular ATP content using the CellTiter-Glo Luminescent Cell Viability Assay (Promega).
On the technique in general: In ATP-based viability assays light output follows the ATP content of the culture.

Assay [2] concerns A375 melanoma cells. Kind of assay: Clonogenic survival assay. It counts as cell-based, human. Particulars: 24 h; for clonogenic survival relative to the untreated control: A375, 5.0, 7.5, and 10 μM. As for the experimental part: (§4) To further test the hypothesis that TPVP derivatives can be designed to decrease viability in melanoma cells relative to normal cells, clonogenic survival assays were performed (FIG. 6). The clonogenic cell survival assay is used often as a measure of the ability of cells to proliferate indefinitely. In these studies, cells were exposed to varying concentrations of TPVP derivatives for 24 h. After exposure to cytotoxic compounds, cells were collected, counted, and reseeded at a low density. The cells then undergo a series of doublings, forming cell colonies. These colonies were then counted, and the resulting cell survival curve reports the dose of the agent used to produce an insult and the fraction of cells retaining their ability to reproduce. […] Specifically, 18:2-TPVP decreases clonogenic survival to <50% at 5.0 μM for both A375 and SK-Mel-3 cells and <20% at 7.5 μM.
as §2
(§5) A375 cells were plated in 60 mm culture dishes at a density of 1.5×10^5 cells per dish. SKMel-3 and NHF cells were plated in 60 mm culture dishes at a density of 2.5×10^5 cells per dish. After 48 h, cells were treated with 1.0, 2.5, 5.0, 7.5, or 10 μM of PTVP, DPDVP, or 18:2-TPVP for 24 h. After the exposure period, cells were collected, counted, and plated at either 500 (A375 and NHF) or 3000 (SK-Mel-3) cells per 60 mm dish. Following a 2 week incubation, medium was removed and colonies fixed with ethanol and stained with Coommassie Brilliant Blue. Data were normalized to each untreated control, and the surviving fraction was reported.

The subject of assay [3] is SK-Mel-3 melanoma cells. Kind of assay: Clonogenic survival assay. The settings on record: 24 h; for clonogenic survival relative to the untreated control: SK-Mel-3, 5.0, 7.5, and 10 μM. It counts as cell-based, human. As for the experimental part: as §4, §2, §5
In assay [4] the test system is normal human fibroblasts (NHFs). Put plainly: DHE oxidation. It counts as cell-based. Particulars: 10 μM, 1 h.
Source text: (§6) Oxidation-sensitive dihydroethidium (DHE) was used to determine if mitochondrial-accumulated TPVP derivatives alter the oxidation state of melanoma cells (FIG. 3). DHE is a blue-fluorescent superoxide-sensitive probe that accumulates in the cytosol of healthy cells. However, upon reaction with superoxide, DHE intercalates with DNA and forms a red-fluorescent product (2-hydroxyethidium). Therefore, the shift to red fluorescence is an indicator of the change in the redox state of the cell.
as §2
(§7) A375 cells were plated in a black, clearbottom 96 well plate at a density of 1.5×10^4 cells per well. […] Cells were analyzed using a spectrophotometer at 590 nm.

For assay [5] the test system is unchanged. Put plainly: Confocal microscopy, mitochondrial accumulation and colocalization with Mito Tracker Red. The settings on record: 1 μM, 3 h. The assay is classed as cell-based. As for the experimental part: (§8) Confocal microscopy was used to determine that 10-TPVP preferentially accumulates in the mitochondria of melanoma cells and fluoresces upon aggregation in mitochondrial membranes of melanoma cells relative to nonmalignant cells (FIG. 1). […] NHF cells have a basal level of 10-TPVP accumulation, supporting the hypothesis that TPVP derivatives preferentially accumulate by targeting the hyperpolarized mitochondrial membrane (FIG. 1; Column II).
as §2
(§9) A375, SK-Mel-3, and NHF cells were cultured at a density of 2.5×104, 5×104, or 7.5×104, respectively, on a 4 well glass chamber slide for 24 h prior to exposure to test compounds. […]

Assay [6] concerns A375 melanoma cells. The assay is described as above. The assay is classed as cell-based, human. Particulars: A375, 1 μM, 3 h. As for the experimental part:
as §8, §2, §9

For assay [7], the system named is SK-Mel-3 melanoma cells. The assay is described as above. It counts as cell-based, human. The settings on record: SK-Mel-3, 1 μM, 3 h. As for the experimental part: as §8, §2, §9
Assay [8] concerns A375 melanoma cells. Kind of assay: DHE oxidation. It counts as cell-based, human. Particulars: A375, 10 μM, 1 h, normalized to untreated control.
Source text: as §6, §2, §7

The subject of assay [9] is SK-Mel-3 melanoma cells. Kind of assay: DHE oxidation. The settings on record: SK-Mel-3, 10 μM, 1 h, normalized to untreated control. The assay is classed as cell-based, human.
Source text: as §6, §2, §7

Assay [10] deals with A375 melanoma cells. Kind of assay: JC-1 mitochondrial membrane potential assay. It counts as cell-based, human. Particulars: A375, 10 μM, 1 h.
Source text: (§10) JC-1 mitochondrial membrane potential assays were used to determine that TPVP derivatives are designed to accumulate in melanoma cell mitochondria and disrupt the membrane potential of melanoma cells relative to nonmalignant cells (FIG. 2).
(§11) Mitochondrial membrane potential is an important parameter of mitochondrial function. In healthy cells (with high mitochondrial potential), JC-1 spontaneously forms complexes known as J-aggregates that fluoresce in the red region. In unhealthy cells with a low mitochondria membrane potential or cells whose membrane integrity is disrupted with uncoupling agents (e.g., FCCP), JC-1 remains in the monomeric form, with fluorescence in the green region. Therefore, the ratio of Jaggregate to monomer fluorescence is an indicator of mitochondrial membrane potential and cellular health.
as §2
(§12) A375 cells were plated in a black, clear-bottom 96 well plate at a density of 1.5×10^4 cells per well. SK-Mel-3 and NHF cells were plated in a black, clear-bottom 96 well plate at a density of 2.5×10^4 cells […]. After 24 h, cells were treated with 2.5, 5.0, or 10 μM 18:2-TPVP or DPDVP for 1 h. Cells were then washed and incubated with 2.0 μM JC-1 (Cayman) in PBS containing 5 mM pyruvate (Gibco) for 1 h. Control dishes were treated with 1.0 μM FCCP (Sigma-Alrich) 30 min prior to measurement. Cells were washed and analyzed in PBS using a spectrophotometer at 530 and 590 nm.

Assay [11] has as its system SK-Mel-3 melanoma cells. Put plainly: JC-1 mitochondrial membrane potential assay. The assay is classed as cell-based, human. Particulars: SK-Mel-3, 10 μM, 1 h.
Source text: as §10, §11, §2, §12

In assay [12] the test system is normal human fibroblasts (NHFs). Kind of assay: JC-1 mitochondrial membrane potential assay. The assay is classed as cell-based. The settings on record: 10 μM, 1 h.
Source text: as §10, §11
Experiments were performed using human metastatic BRAFV600E mutant A375 (ATCC CRL-1619) human melanoma cells, metastatic BRAFV600E mutant SK-Mel-3 (ATCC HTB-69) human melanoma cells isolated from a lymph node metastasis, and nonmetastatic normal human fibroblasts (NHFs) provided by the Coriell Institute (AG13442). All cells were cultured at 21% O2 at 37° C. in a humidified 5% CO2 incubator. […]
A375 cells were plated in a black, clear-bottom 96 well plate at a density of 1.5×10^4 cells per well. […] Cells were washed and analyzed in PBS using a spectrophotometer at 530 and 590 nm.

Assay [13] relates to SK-Mel-3 melanoma cells. Put plainly: Intracellular ATP measurement (CellTiter-Glo luciferase assay). The assay is classed as cell-based, human. The settings on record: SK-Mel-3, 5.0 μM and 10 μM, 24 h. As for the experimental part: as §1, §2, §3
Assay [14] concerns normal human fibroblasts (NHFs). Put plainly: Clonogenic survival assay. It counts as cell-based. Particulars: NHF, 5.0 μM, 24 h. As for the experimental part: as §4, with “μM. […]” for “μM.”
A375 cells were plated in 60 mm culture dishes at a density of 1.5×10^5 cells per dish. […] After the exposure period, cells were collected, counted, and plated at either 500 (A375 and NHF) or 3000 (SK-Mel-3) cells per 60 mm dish. […]

Several values for one entry are separate records, joined by “and”; a condition that tells them apart may be missing. Identical values can stand only once.

In the case of `CCCCCCCCCC[n+]1ccc(C(=C(c2cc[n+](CCCCCCCCCC)cc2)c2cc[n+](CCCCCCCCCC)cc2)c2ccccc2)cc1.[Br-].[Br-].[Br-]` [PTVP, 4,4′,4″-(2-Phenylethene-1,1,2-triyl)tris(1-decylpyridin-1-ium) Bromide], the “concentration of ATP relative to the untreated control” value in the assay with A375 melanoma cells [1] was “significantly decreases”. In addition, the “clonogenic survival relative to the untreated control” value in the assay with A375 melanoma cells [2] and in the assay on SK-Mel-3 melanoma cells [3] was “significantly decrease” each time.

As to `CCCCCCCCCC[n+]1ccc(C(=C(c2ccccc2)c2ccccc2)c2ccccc2)cc1.[Br-]` [Compound 10-TPVP, 1-Decyl-4-(1,2,2-triphenylvinyl)pyridin-1-ium Bromide], the DHE fluorescence intensity entry in assay [4] is given as “does not significantly alter”. In addition, in [5], the “accumulation in mitochondria by confocal microscopy” value was “does not significantly accumulate”. Besides, the “accumulation in cells by confocal microscopy” value with A375 melanoma cells [6] and in the assay on SK-Mel-3 melanoma cells [7] was “easily observable” throughout. Also, the figures for the “increase of DHE oxidation” value in the assay on A375 melanoma cells [8] and with SK-Mel-3 melanoma cells [9] were 3 fold and 2 fold, respectively.

As for `CCCCCCCCCC[n+]1ccc(C(=C(c2ccccc2)c2ccccc2)c2cc[n+](CCCCCCCCCC)cc2)cc1.[Br-].[Br-]` [DPDVP, 4,4′-(2,2-Diphenylethene-1,1-diyl)bis(1-decylpyridin-1-ium) Bromide], the “concentration of ATP relative to the untreated control” value in the assay on A375 melanoma cells [1] was “significantly decreases”. Besides, the “clonogenic survival relative to the untreated control” value in the assay on A375 melanoma cells [2] and in the assay with SK-Mel-3 melanoma cells [3] was “significantly decrease” in each case. For the same molecule, the entries for the “decrease of JC-1 aggregate to monomer fluorescence ratio” value (with A375 melanoma cells [10]; with SK-Mel-3 melanoma cells [11]; in assay [12]) were 50%, 30% and 10%, respectively.

On to `CCCCC/C=C\C/C=C\CCCCCCCC[n+]1ccc(C(=C(c2ccccc2)c2ccccc2)c2ccccc2)cc1.[Br-]` [18:2-TPVP, 1-((9Z,12Z)-Octadeca-9,12-dien-1-yl)-4-(1,2,2-triphenylvinyl)pyridin-1-ium Bromide], for which, in the assay on A375 melanoma cells [1], the “concentration of ATP relative to the untreated control” value is given as “significantly decreases”. The “intracellular ATP relative to NHFs” value in the assay with A375 melanoma cells [1] (A375, all concentrations (1, 5, or 10 μM)) was “significantly decreases”; in the assay with SK-Mel-3 melanoma cells [13], “significantly decreases”. The clonogenic survival in the assay with A375 melanoma cells [2] (A375, 5.0 μM) was < 50% and 40%; with A375 melanoma cells [2] (A375, 7.5 μM), below 20%; in the assay with SK-Mel-3 melanoma cells [3] (SK-Mel-3, 5.0 μM), < 50% and 30%; in the assay with SK-Mel-3 melanoma cells [3] (SK-Mel-3, 7.5 μM), below 20%; in assay [14], 75%. The “clonogenic survival relative to NHFs” value is reported as “significant decrease” in the assay on A375 melanoma cells [2] (A375, 2.5, 5.0, 7.5, and 10 μM); “significant decrease” in the assay with SK-Mel-3 melanoma cells [3] (SK-Mel-3, 2.5, 5.0, 7.5, and 10 μM). Further, the “clonogenic survival relative to the untreated control” value with A375 melanoma cells [2] and with SK-Mel-3 melanoma cells [3] was “significantly decrease” each time. Moreover, the figures for the “decrease of JC-1 aggregate to monomer fluorescence ratio” value (in the assay with A375 melanoma cells [10]; in the assay with SK-Mel-3 melanoma cells [11]; in assay [12]) were 55%, 40% and 20%, respectively.
